# Experimental data: PMC11096148 (EJNMMI Radiopharmacy and Chemistry, 2024)
# Values joined by “and” are separate entries in the source; they are usually repeats but may differ in a detail not shown here. Equal entries are not always repeated.
# Key:
# [1] = tested on: mouse hepatic organoids; assay: Organoid uptake assay and fluorescence imaging; assay type: cell-based; details: 1 h at 37 °C
# Procedure: For blocking, the experiment was conducted in presence of 10 mM GalNAc. At the end of the incubation time, cells were put on ice for 1 min and spun down (300 rcf, 5 min, 4 °C). The supernatant was carefully removed and organoids were washed twice with 200 µL of ice-cold PBS. Internalized activity was released by treating the organoids with 200 µL of 1 M NaOH for 10 min. Lysates were transferred into scintillation vials and the activity content was measured in a γ-counter. Organoid uptake was determined as the percentage of total radioactivity added.
# For microscopic studies organoids were incubated with 333 nM BP-Fluor-647-TriGalactan for 1 h at 37 °C. Cells were pelleted, washed once with PBS and fixated by addition of 200 µL of fixation buffer (BD Cytofix/Cytoperm™, Fisher Scientific, Hampton, USA). After 1 h at room temperature, cells were washed again with PBS and incubated in 100 µL of perm/wash-buffer (Biozym, Hessisch Oldendorf, Germany) for another 30 min. For counter staining organoids were incubated over night at 4 °C with 30 µL of a mixture of 2 µM Hoechst 33,342 (Thermo Scientific), 165 nM Phalloidin CruzFluor™ 555 (Santa Cruz, Dallas, Texas, USA) and Anti-ASGR1 AF488-coupled antibody (2 µg/mL, Bio-Techne, Dublin, Ireland). The next day, organoids were centrifuged, washed three times with PBS and transferred to a CellCarrier-96 Ultra Microplate (PerkinElmer). The Operetta CLS system (revvity, Hamburg, Germany) was used to image the samples. Analysis was performed using the Harmony software 4.9.
# Mouse hepatic organoids (Stemcell Technologies, Vancouver, Canada) were cultivated in HepatiCult® organoid growth medium supplemented with 1 % Penicillin/Streptomycin + l-Glutamine (Thermofisher Scientific, Waltham, Massachussetts, USA) embedded in a Geltrex^TM (Thermofisher Scientific) LDEV-free reduced growth factor basement membrane matrix. Medium was replaced every 3-4 days and organoids were passaged every 7-10 days. For passaging, matrix domes were mechanically disrupted and the cell suspension was transferred into a 15 mL falcon tube. […]
# [2] = Small animal dynamic PET/MR imaging, time activity curves; assay type: in vivo; details: C57BL/6J mice
# Procedure: All animal experiments were performed according to the German animal welfare act and approved by the local authorities (R5/19). Male C57BL/6J mice were purchased from Janvier Lab (Saint-Berthevin Cedex, France) at 6 weeks. Mice were kept under 1.5% isoflurane in oxygen during the measurements (n = 3). Approximately 1 MBq of the radiotracer was injected intravenously per mouse and 1 h dynamic PET was performed with an Inveon microPET system (Inveon D-PET, Siemens, Knoxville, TN, USA). Mice were then transferred to a 7 Tesla BioSpec 70/30 USR (Bruker Biospin MRI GmbH, Ettlingen, Germany) and a 15 min MR anatomical scan using T2-weighted 3-dimensional turbo spin-echo sequence was acquired. An Inveon Acquisition Workplace was used to reconstruct the acquired images using ordered subset expectation maximization 3D (OSEM 3D) and framing the dynamics. The reconstructed image analysis was performed by using an Inveon Research Workplace. After co-registering acquired MR images with PET images, regions of interest (ROIs) were drawn on liver, heart, muscle, and kidney and time activity curves (TACs) were quantified.
# [3] = Stability in human blood serum; assay type: in vitro ADME; details: for Serum stability: human blood serum
# Procedure: (§1) A detailed synthetic procedure for preparation of NODAGA-TriGalactan including analytical data as well as a complete list of all reagents can be found in the supplementary information. Protocols for determination of logD, protein binding and stability studies have been described elsewhere (Hörmann et al. [2020]).
# (§2) Binding to the ASGR was quantified in an assay with freshly isolated mouse hepatocytes using the ^natGa-complex of NODAGA-TriGalactan. Hepatocytes were seeded in a 24-well plate and competitive binding against [^125I]I-asialorosomucoid (ASOR) was studied.
# [4] = tested on: plasma protein; assay: Protein binding; assay type: in vitro ADME
# Procedure: as §1, §2
# [5] = Stability in PBS; assay type: physicochemical
# Procedure: as §1, §2
# [6] = Biodistribution studies in healthy BALB/c mice; assay type: in vivo
# Procedure: For biodistribution studies 6 week old female BALB/c mice (n = 3, Charles Rivers Laboratories, Sulzfeld, Germany) were injected with 0.1 nmol (100 µL, approx. 1 MBq) of ^68Ga-labelled compound via the lateral tail vein and sacrificed by cervical dislocation 10, 30, or 60 min post injection (p.i.). The mice were dissected, blood and organs were weighed and the activity of the samples measured in a γ-counter. For blocking experiments, mice were co-injected with 27.7 µmol of D-galactose.
# [7] = target: T1, asialoglycoprotein receptor (ASGR) (Mus musculus, UniProt P24721+P34927); assay: Competitive binding against [^125I]I-asialoorosomucoid on freshly isolated mouse hepatocytes; details: [^125I]I-asialoorosomucoid 5 nM, 1 hour on ice
# T1 construct: endogenous in cells; host or cells: primary hepatocytes freshly isolated from C57BL/6 mice (collagenase perfusion)
# T1 sequence (P34927 1-284): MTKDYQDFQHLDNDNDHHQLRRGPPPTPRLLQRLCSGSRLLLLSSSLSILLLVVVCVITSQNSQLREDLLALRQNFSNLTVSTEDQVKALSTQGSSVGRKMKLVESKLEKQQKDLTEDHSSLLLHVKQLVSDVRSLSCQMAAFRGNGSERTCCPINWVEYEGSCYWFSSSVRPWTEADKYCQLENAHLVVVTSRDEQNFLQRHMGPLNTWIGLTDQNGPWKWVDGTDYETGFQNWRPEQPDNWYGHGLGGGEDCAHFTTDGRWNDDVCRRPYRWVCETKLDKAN
# T1 sequence (P24721 1-301): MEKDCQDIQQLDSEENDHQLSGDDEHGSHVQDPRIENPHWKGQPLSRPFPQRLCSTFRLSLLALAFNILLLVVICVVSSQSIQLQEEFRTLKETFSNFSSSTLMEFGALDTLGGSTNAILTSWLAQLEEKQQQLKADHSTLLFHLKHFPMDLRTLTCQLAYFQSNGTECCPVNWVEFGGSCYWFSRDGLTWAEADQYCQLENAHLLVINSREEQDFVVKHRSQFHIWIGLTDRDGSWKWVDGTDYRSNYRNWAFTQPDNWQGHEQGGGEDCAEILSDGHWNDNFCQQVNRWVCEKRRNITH
# Procedure: Inhibitory constant (IC50) values were determined in triplicates using freshly isolated mouse hepatocytes (Seglen [1976]). […] In brief, cells were incubated in presence of [^125I]I-asialoorosomucoid (5 nM) with various ligand concentrations ranging from 10^− 5-10^− 11 M for 1 hour on ice. Cells were washed and cell bound activity was released by addition of 200 µL 1 M NaOH for 10 min. The activity content in the lysates was quantified in a γ-counter (2480 Wizard^2 3”, PerkinElmer, Waltham, Massachussetts, USA) and the values were plotted in excel. Fitting of the sigmoidal binding curve and the calculation of the IC50 value was done with excel’s solver plugin.
# Binding to the ASGR was quantified in an assay with freshly isolated mouse hepatocytes using the ^natGa-complex of NODAGA-TriGalactan. Hepatocytes were seeded in a 24-well plate and competitive binding against [^125I]I-asialorosomucoid (ASOR) was studied. For comparison, the affinity of GSA for the receptor was also determined.
# Isolation of murine hepatocytes followed the collagenase perfusion method published by Seglen [4]. Therefore, C57BL/6 mice were euthanized by cervical dislocation and subsequently the peritoneum was opened. […] Hepatocytes were resuspended in 20 – 30 mL of William’s E + Glutamaxx + 10 % FCS + 1 % Penicillin/Streptomycin (Gibco, Thermofisher Scientific) and counted, typically yielding 30 – 40 × 10^6 cells/animal. […]
# [8] = 30 min p.i., blocking with 27.7 µmol D-galactose
compound,measurement,setting,value
CC1(CCCCCC(=O)NCCCC(=O)NC(COCc2cn(CCOCCOCCO[C@@H]3O[C@H](CO)[C@H](O)[C@H](O)[C@H]3O)nn2)(COCc2cn(CCOCCOCCO[C@@H]3O[C@H](CO)[C@H](O)[C@H](O)[C@H]3O)nn2)COCc2cn(CCOCCOCCO[C@@H]3O[C@H](CO)[C@H](O)[C@H](O)[C@H]3O)nn2)C(/C=C/C=C/C=C2/N(CCCS(=O)(=O)O)c3ccc(S(=O)(=O)O)cc3C2(C)C)=[N+](CCCS(=O)(=O)[O-])c2ccc(S(=O)(=O)O)cc21 (stereo partly drawn) [BP-Fluor-647-TriGalactan],Fluorescence imaging of mouse hepatic organoids,"[1]; 333 nM, co-staining with anti-ASGR antibody",internalization of the trimer into the organoids
O=C([O-])CN1CCN(CC(=O)[O-])CCN([C@H](CCC(=O)NCCCC(=O)NC(COCc2cn(CCOCCOCCO[C@@H]3O[C@H](CO)[C@H](O)[C@H](O)[C@H]3O)nn2)(COCc2cn(CCOCCOCCO[C@@H]3O[C@H](CO)[C@H](O)[C@H](O)[C@H]3O)nn2)COCc2cn(CCOCCOCCO[C@@H]3O[C@H](CO)[C@H](O)[C@H](O)[C@H]3O)nn2)C(=O)[O-])CC1.[68Ga+3] [[^68Ga]Ga-NODAGA-TriGalactan],"Time of kidney activity peak, PET TAC",[2],~1.5 min
same,"Background muscle uptake, PET TAC",[2]; 1 h dynamic PET,less than 3 % ID/mL
same,"Activity in the blood (measured in the heart), PET TAC",[2]; within the first three minutes,below 5 % ID/mL
same,Serum stability,[3]; 2 min,99.8 ± 0%
same,Serum stability,[3]; 30 min,97.6 ± 2.3%
same,Serum stability,[3]; 60 min,98.5 ± 1.2%
same,Serum stability,[3]; 120 min,92.9 ± 4.6%
same,stability in human blood serum (intact tracer),[3]; over the time course of 2 h,> 93%
same,Cellular uptake on mouse hepatic organoids,[1]; 0.3 nM tracer,decent degree of internalization
same,Cellular uptake with blocking on mouse hepatic organoids,"[1]; in presence of 10 mM GalNAc, p < 0.05",receptor specific interaction with the ASGR
same,Protein binding,[4]; 2 min of incubation,7.6 ± 3.9%
same,Protein binding,[4]; 30 min of incubation,5.5 ± 0.5%
same,Protein binding,[4]; 60 min of incubation,9.2 ± 0.2%
same,Protein binding,[4]; 120 min of incubation,13.6 ± 3.2%
same,PBS stability,[5]; 2 min,99.8%
same,PBS stability,[5]; 30 min,99.8%
same,PBS stability,[5]; 60 min,99.8%
same,PBS stability,[5]; 120 min,99.8%
same,stability in PBS (intact tracer),[5]; over the time course of 2 h,> 99%
same,Biodistribution Blood,[6]; 10 min p.i.,3.3 ± 0.2 % ID/g
same,Biodistribution Femur,[6]; 10 min p.i.,0.87 ± 0.52 % ID/g
same,Biodistribution Intestine,[6]; 10 min p.i.,1.13 ± 0.07 % ID/g
same,Biodistribution Kidneys,[6]; 10 min p.i.,8.2 ± 0.5 % ID/g and 8.15 ± 0.54 % ID/g
same,Biodistribution Liver,[6]; 10 min p.i.,33.4 ± 0.9 % ID/g
same,Biodistribution Lung,[6]; 10 min p.i.,2.14 ± 0.13 % ID/g
same,Biodistribution Muscle,[6]; 10 min p.i.,0.77 ± 0.02 % ID/g
same,Biodistribution Pancreas,[6]; 10 min p.i.,0.87 ± 0.12 % ID/g
same,Biodistribution Spleen,[6]; 10 min p.i.,0.78 ± 0.05 % ID/g
same,Biodistribution Blood,[6]; 30 min p.i.,0.89 ± 0.09 % ID/g
same,Biodistribution Femur,[6]; 30 min p.i.,0.22 ± 0.02 % ID/g
same,Biodistribution Heart,[6]; 30 min p.i.,0.40 ± 0.03 % ID/g
same,Biodistribution Intestine,[6]; 30 min p.i.,1.95 ± 0.17 % ID/g
same,Biodistribution Kidneys,[6]; 30 min p.i.,2.83 ± 0.18 % ID/g
same,Biodistribution Liver,[6]; 30 min p.i.,32.2 ± 3.7 % ID/g
same,Biodistribution Lung,[6]; 30 min p.i.,0.74 ± 0.03 % ID/g
same,Biodistribution Muscle,[6]; 30 min p.i.,0.23 ± 0.03 % ID/g
same,Biodistribution Pancreas,[6]; 30 min p.i.,0.31 ± 0.05 % ID/g
same,Biodistribution Spleen,[6]; 30 min p.i.,0.27 ± 0.02 % ID/g
same,Biodistribution Stomach,[6]; 30 min p.i.,1.05 ± 0.08 % ID/g
same,Biodistribution Blood,[6]; [8],1.19 ± 0.33 % ID/g
same,Biodistribution Femur,[6]; [8],0.37 ± 0.16 % ID/g
same,Biodistribution Heart,[6]; [8],0.44 ± 0.03 % ID/g
same,Biodistribution Intestine,[6]; [8],0.77 ± 0.19 % ID/g
same,Biodistribution Kidneys,[6]; [8],4.19 ± 0.29 % ID/g
same,Biodistribution Liver,[6]; [8],14.6 ± 0.15 % ID/g
same,Biodistribution Lung,[6]; [8],0.97 ± 0.04 % ID/g
same,Biodistribution Muscle,[6]; [8],0.43 ± 0.20 % ID/g
same,Biodistribution Pancreas,[6]; [8],0.45 ± 0.01 % ID/g
same,Biodistribution Spleen,[6]; [8],0.32 ± 0.03 % ID/g
same,Biodistribution Stomach,[6]; [8],0.68 ± 0.11 % ID/g
same,Biodistribution Blood,[6]; 60 min p.i.,0.3 ± 0.04 % ID/g and 0.34 ± 0.04 % ID/g
same,Biodistribution Femur,[6]; 60 min p.i.,0.26 ± 0.19 % ID/g
same,Biodistribution Heart,[6]; 60 min p.i.,0.17 ± 0.00 % ID/g
same,Biodistribution Intestine,[6]; 60 min p.i.,3.0 ± 0.4 % ID/g and 2.99 ± 0.43 % ID/g
same,Biodistribution Kidneys,[6]; 60 min p.i.,1.51 ± 0.10 % ID/g
same,Biodistribution Liver,[6]; 60 min p.i.,27.7 ± 3.1 % ID/g
same,Biodistribution Lung,[6]; 60 min p.i.,0.38 ± 0.10 % ID/g
same,Biodistribution Muscle,[6]; 60 min p.i.,0.17 ± 0.02 % ID/g
same,Biodistribution Pancreas,[6]; 60 min p.i.,0.19 ± 0.09 % ID/g
same,Biodistribution Spleen,[6]; 60 min p.i.,0.16 ± 0.02 % ID/g
same,Biodistribution Stomach,[6]; 60 min p.i.,0.92 ± 0.04 % ID/g
O=C([O-])CN1CCN(CC(=O)[O-])CCN([C@H](CCC(=O)NCCCC(=O)NC(COCc2cn(CCOCCOCCO[C@@H]3O[C@H](CO)[C@H](O)[C@H](O)[C@H]3O)nn2)(COCc2cn(CCOCCOCCO[C@@H]3O[C@H](CO)[C@H](O)[C@H](O)[C@H]3O)nn2)COCc2cn(CCOCCOCCO[C@@H]3O[C@H](CO)[C@H](O)[C@H](O)[C@H]3O)nn2)C(=O)[O-])CC1.[Ga+3] [[^natGa]Ga-NODAGA-TriGalactan],IC50,[7],73.2 ± 67.5 nM
